Read-outs that look alike come from different tables or passages of the source.
Assays:
Assay type in all cases: in vivo
[1] = system: Corn Earworm (CEW) (Helicoverpa zea); test: Bioassay on corn earworm (CEW), 128-well diet tray assay; conditions: Helicoverpa zea, read-out: % Mortality CEW 50 μg/cm^2
Summary of the method: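 Activity was scored as percent larval mortality per well, averaged across eight wells and reported on a rating scale. Diet trays (128-well) were kept at 25° C with 14:10 light-dark for five to seven days.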

[2] = system: Beet Armyworm (BAW) (Spodoptera exigua); test: Bioassay on beet armyworm (BAW), 128-well diet tray assay; conditions: Spodoptera exigua, read-out: % Mortality BAW 50 μg/cm^2
[3] = system: Green Peach Aphid (GPA) (Myzus persicae); test: Bioassay on green peach aphid (GPA), foliar spray on cabbage seedlings; conditions: read-out: % Mortality GPA 200 ppm
Protocol: Certain molecules disclosed in this document were tested against GPA using procedures described in the following example. In the reporting of the results, the “GPA Rating Table” was used (See Table Section).
Cabbage seedlings grown in 3-inch pots, with 2-3 small (3-5 cm) true leaves, were used as test substrate. The seedlings were infested with 20-50 GPA (wingless adult and nymph stages) one day prior to chemical application. Four pots with individual seedlings were used for each treatment. Test compounds (2 mg) were dissolved in 2 mL of acetone/methanol (1:1) solvent, forming stock solutions of 1000 ppm test compound. […] A hand-held aspirator-type sprayer was used for spraying a solution to both sides of […] leaves until runoff. Reference plants (solvent check) were sprayed with the diluent only containing 20% by volume of acetone/methanol (1:1) solvent. Treated plants were held in a holding room for three days at approximately 25° C. and ambient relative humidity (RH) prior to grading. Evaluation was conducted by counting the number of live aphids per plant under a microscope. […] Corrected % Control=100*(X−Y)/X • where • X=No. of live aphids on solvent check plants and • Y=No. of live aphids on treated plants
The results are indicated in the table entitled “Table 5: Biological Results” (See Table Section).

Row | SMILES | mortality at 50 µg/cm2 ([1]; corn earworm, 50 μg/cm^2) | mortality at 50 µg/cm2 ([2]; beet armyworm, 50 μg/cm^2) | mortality at 200 ppm ([3]; green peach aphid, 200 ppm) | mortality at 50 µg/cm2 [1] | mortality at 50 µg/cm2 [2] | mortality at 200 ppm [3]
1 | Cc1cccc(C)c1/N=C(/N/N=C/c1ccc(-c2ncn(-c3ccc(OC(F)(F)F)cc3)n2)cc1)SCc1cc2c(C(F)(F)F)nn(C)c2s1 [Compound 19C] | 50 to 100% | 50 to 100% | 0 to 80% | – | – | –
2 | Cc1cccc(C)c1/N=C(/N/N=C/c1ccc(-c2ncn(-c3ccc(OC(F)(F)F)cc3)n2)cc1)SCc1c(-c2ccccc2)noc1C [Compound 20C] | 50 to 100% | 50 to 100% | 0% | – | – | –
3 | CCOCC(=O)OCS/C(=N\c1c(C)cccc1C)N/N=C/c1ccc(-c2ncn(-c3ccc(OC(F)(F)F)cc3)n2)cc1 [Compound 22C] | 50 to 100% | 50 to 100% | 0 to 80% | – | – | –
4 | Cc1cccc(C)c1/N=C(/N/N=C/c1ccc(-c2ncn(-c3ccc(OC(F)(F)F)cc3)n2)cc1)SCOC(=O)CNC(=O)OCc1ccccc1 [Compound 23C] | – | – | – | 50 to 100% | 50 to 100% | 0%
5 | Cc1cccc(C)c1/N=C(/N/N=C/c1ccc(-c2ncn(-c3ccc(OC(F)(F)F)cc3)n2)cc1)SCOC(=O)OC(C)C [Compound 24C] | 50 to 100% | 50 to 100% | 0 to 80% | – | – | –
6 | Cc1cccc(C)c1/N=C(/N/N=C/c1ccc(-c2ncn(-c3ccc(OC(F)(F)F)cc3)n2)cc1)SCOC(=O)C(C)C [Compound 25C] | 50 to 100% | 50 to 100% | 0% | – | – | –
7 | COc1cc(C)c(/N=C(/N/N=C/c2ccc(-c3ncn(-c4ccc(OC(F)(F)F)cc4)n3)cc2)SCOC(=O)C(C)C)c(C)c1 [Compound 27C] | 50 to 100% | 50 to 100% | 0 to 80% | – | – | –
8 | COc1cc(C)c(/N=C(/N/N=C/c2ccc(-c3ncn(-c4ccc(OC(F)(F)F)cc4)n3)cc2)SCOC(=O)CNC(=O)OCc2ccccc2)c(C)c1 [Compound 28C] | – | – | – | 50 to 100% | 50 to 100% | 0 to 80%
9 | CCOCC(=O)OCS/C(=N\c1c(C)cc(OC)cc1C)N/N=C/c1ccc(-c2ncn(-c3ccc(OC(F)(F)F)cc3)n2)cc1 [Compound 29C] | 50 to 100% | 50 to 100% | 0 to 80% | – | – | –
10 | Cc1cccc(C)c1/N=C(/N/N=C/c1ccc(-c2ncn(-c3ccc(OC(F)(F)F)cc3)n2)cc1)SCOC(=O)CNC(=O)OC(C)(C)C [Compound 30C] | 50 to 100% | 50 to 100% | 0 to 80% | – | – | –
11 | CC(=O)OCS/C(=N\c1c(C)cccc1C)N/N=C/c1ccc(-c2ncn(-c3ccc(OC(F)(F)F)cc3)n2)cc1 [Compound 31C] | 50 to 100% | 50 to 100% | 0 to 80% | – | – | –
12 | COc1cc(Cl)c(/N=C(/N/N=C/c2ccc(-c3ncn(-c4ccc(OC(F)(F)F)cc4)n3)cc2)SCOC(=O)OC(C)C)c(Cl)c1 [Compound 33C] | 50 to 100% | 50 to 100% | 0 to 80% | – | – | –
13 | Cc1cccc(C)c1/N=C(/N/N=C/c1ccc(-c2ncn(-c3ccc(OC(F)(F)F)cc3)n2)cc1)SCOC(=O)C1CCCC1 [Compound 35C] | 50 to 100% | 50 to 100% | 0 to 80% | – | – | –
14 | Cc1cccc(C)c1/N=C(/N/N=C/c1ccc(-c2ncn(-c3ccc(OC(F)(F)F)cc3)n2)cc1)SCOC(=O)C(C)(C)C [Compound 36C] | 50 to 100% | 50 to 100% | 0% | – | – | –
15 | COc1cc(C)c(/N=C(/N/N=C/c2ccc(-c3ncn(-c4ccc(OC(F)(F)C(F)(F)F)cc4)n3)cc2)SCOC(=O)C(C)C)c(C)c1 [Compound 37C] | 50 to 100% | 50 to 100% | 0% | – | – | –
16 | COc1cc(C)c(/N=C(/N/N=C/c2ccc(-c3ncn(-c4ccc(OC(F)(F)F)cc4)n3)cc2)SCOC(=O)C(C)OCC(F)(F)F)c(C)c1 (stereo not drawn) [Compound 38C] | 50 to 100% | 50 to 100% | 0% | – | – | –
17 | COc1cc(C)c(/N=C(/N/N=C/c2ccc(-c3ncn(-c4ccc(OC(F)(F)F)cc4)n3)cc2)SCOC(=O)C(C)(C)C)c(C)c1 [Compound 40C] | 50 to 100% | 50 to 100% | 0 to 80% | – | – | –
18 | COCCOC(C)C(=O)OCS/C(=N\c1c(C)cccc1C)N/N=C/c1ccc(-c2ncn(-c3ccc(OC(F)(F)F)cc3)n2)cc1 (stereo not drawn) [Compound 41C] | 50 to 100% | 50 to 100% | 0% | – | – | –

Row | SMILES | mortality at 50 µg/cm2 ([1]; corn earworm, 50 μg/cm^2) | mortality at 50 µg/cm2 ([2]; beet armyworm, 50 μg/cm^2) | mortality at 200 ppm ([3]; green peach aphid, 200 ppm) | mortality at 50 µg/cm2 [1] | mortality at 50 µg/cm2 [2] | mortality at 200 ppm [3]
19 | COCCOC(C)C(=O)OCS/C(=N\c1c(C)cc(OC)cc1C)N/N=C/c1ccc(-c2ncn(-c3ccc(OC(F)(F)F)cc3)n2)cc1 (stereo not drawn) [Compound 42C] | 50 to 100% | 50 to 100% | 0% | – | – | –
20 | COc1cc(C)c(/N=C(/N/N=C/c2ccc(-c3ncn(-c4ccc(OC(F)(F)F)cc4)n3)cc2)SCOC(=O)C2CCCC2)c(C)c1 [Compound 43C] | 50 to 100% | 50 to 100% | 0 to 80% | – | – | –
21 | COc1cc(C)c(/N=C(/N/N=C/c2ccc(-c3ncn(-c4ccc(OC(F)(F)F)cc4)n3)cc2)SCOC(=O)C2CCCO2)c(C)c1 (stereo not drawn) [Compound 44C] | 50 to 100% | 50 to 100% | 0% | – | – | –
22 | COc1cc(C)c(/N=C(\N/N=C/c2ccc(-c3ncn(-c4ccc(C(F)(F)F)cc4)n3)cc2)SCOC(=O)C(C)C)c(C)c1 [Compound 46C] | 50 to 100% | 50 to 100% | 0% | – | – | –
23 | Cc1cccc(C)c1/N=C(/N/N=C/c1ccc(-c2ncn(-c3ccc(OC(F)(F)F)cc3)n2)cc1)SCC(=O)O [Compound 47C] | 50 to 100% | 50 to 100% | 0 to 80% | – | – | –
24 | Cc1cccc(C)c1/N=C(/N/N=C/c1ccc(-c2ncn(-c3ccc(OC(F)(F)C(F)(F)F)cc3)n2)cc1)SCC(=O)O [Compound 49C] | 50 to 100% | 50 to 100% | 0 to 80% | – | – | –
25 | COc1cc(C)c(/N=C(/N/N=C/c2ccc(-c3ncn(-c4ccc(OC(F)(F)C(F)(F)F)cc4)n3)cc2)SCC(=O)O)c(C)c1 [Compound 51C] | 50 to 100% | 50 to 100% | 0% | – | – | –
26 | COc1ccc(C(C)/N=C(/N/N=C/c2ccc(-c3ncn(-c4ccc(OC(F)(F)F)cc4)n3)cc2)SCC(=O)O)cc1 (stereo not drawn) [Compound 52C] | 0% | 0 to 50% | 0 to 80% | – | – | –
27 | COc1ccc(C(C)/N=C(/N/N=C/c2ccc(-c3ncn(-c4ccc(OC(F)(F)F)cc4)n3)cc2)SCC(=O)O)cc1F (stereo not drawn) [Compound 53C] | 0% | 0 to 50% | 0 to 80% | – | – | –
28 | CC(/N=C(/N/N=C/c1ccc(-c2ncn(-c3ccc(OC(F)(F)F)cc3)n2)cc1)SCC(=O)O)c1ccccc1 (stereo not drawn) [Compound 54C] | 50 to 100% | 50 to 100% | 0% | – | – | –
29 | Cc1cccc(C)c1/N=C(/N/N=C/c1ccc(-c2ncn(-c3ccc(OC(F)(F)F)cc3)n2)cc1)SCC(=O)NCC(C)C [Compound 55C] | 50 to 100% | 50 to 100% | 0% | – | – | –
30 | Cc1cccc(C)c1/N=C(/N/N=C/c1ccc(-c2ncn(-c3ccc(OC(F)(F)F)cc3)n2)cc1)SCC(=O)N1CCN(C(=O)OC(C)(C)C)CC1 [Compound 57C] | 50 to 100% | 50 to 100% | 0 to 80% | – | – | –
31 | Cc1cccc(C)c1/N=C(/N/N=C/c1ccc(-c2ncn(-c3ccc(OC(F)(F)F)cc3)n2)cc1)SCC(=O)NCCCNC(=O)OC(C)(C)C [Compound 58C] | 50 to 100% | 50 to 100% | 0 to 80% | – | – | –
32 | Cc1cccc(C)c1/N=C(/N/N=C/c1ccc(-c2ncn(-c3ccc(OC(F)(F)F)cc3)n2)cc1)SCC(=O)NCC(NC(=O)OC(C)(C)C)C(=O)O (stereo not drawn) [Compound 59C] | 50 to 100% | 50 to 100% | 0 to 80% | – | – | –
33 | COc1cc(C)c(/N=C(/N/N=C/c2ccc(-c3ncn(-c4ccc(OC(F)(F)F)cc4)n3)cc2)SCC(=O)NCCCNC(=O)OC(C)(C)C)c(C)c1 [Compound 60C] | 50 to 100% | 50 to 100% | 0% | – | – | –
34 | Cc1cccc(C)c1/N=C(/N/N=C/c1ccc(-c2ncn(-c3ccc(OC(F)(F)F)cc3)n2)cc1)SCC(=O)NC[C@@H]1CCCNC1 [Compound 62C, (1Z,2E)-2-oxo-2-(((R)-piperidin-3-ylmethyl)amino)ethyl N-(2,6-dimethylphenyl)-2-(4-(1-(4-(trifluoromethoxy)phenyl)-1H-1,2,4-triazol-3-yl)benzylidene)hydrazinecarbimidothioate trifluoroacetic acid] | 50 to 100% | 50 to 100% | 0 to 80% | – | – | –
35 | Cc1cccc(C)c1/N=C(/N/N=C/c1ccc(-c2ncn(-c3ccc(OC(F)(F)F)cc3)n2)cc1)SCC(=O)NCC(N)C(=O)O (stereo not drawn) [Compound 63C] | 50 to 100% | 50 to 100% | 0% | – | – | –
